The NIST ThermoML archive (doi:10.1016/j.jct.2018.08.035)
± gives the expanded uncertainty stated by the source.

Assay: xn = mol fraction of the nth substance listed
Conditions: 100 kPa, Liquid, Vibrating tube method

CCC(O)CC [3-pentanol] + C[N+](=O)[O-]
Conditions | mass density [kg/m3]
289.95 K, x1 = 0.3 | 1001.59 ± 2.1
289.95 K, x1 = 0.325 | 997.479 ± 2.1
289.95 K, x1 = 0.382 | 989.628 ± 2
289.95 K, x1 = 0.414 | 986.685 ± 2
289.95 K, x1 = 0.486 | 972.227 ± 2.1
289.95 K, x1 = 0.488 | 969.425 ± 2.1
289.95 K, x1 = 0.546 | 945.729 ± 2.2
289.95 K, x1 = 0.573 | 926.782 ± 2.4
289.95 K, x1 = 0.587 | 917.014 ± 2.2
289.95 K, x1 = 0.615 | 902.235 ± 2.2
289.96 K, x1 = 0.246 | 1008.64 ± 2.1
289.96 K, x1 = 0.338 | 995.659 ± 2
289.96 K, x1 = 0.363 | 992.594 ± 2
289.96 K, x1 = 0.407 | 986.452 ± 2
290.05 K, x1 = 0.266 | 1004.43 ± 2.1
290.05 K, x1 = 0.325 | 996.695 ± 2.1
290.05 K, x1 = 0.573 | 925.737 ± 2.4
290.05 K, x1 = 0.587 | 916.65 ± 2.3
290.06 K, x1 = 0.246 | 1008.03 ± 2.2
290.06 K, x1 = 0.275 | 1005.08 ± 2.1
290.06 K, x1 = 0.3 | 1000.6 ± 2.1
290.06 K, x1 = 0.338 | 994.875 ± 2
290.06 K, x1 = 0.363 | 991.838 ± 2
290.06 K, x1 = 0.382 | 988.825 ± 2
290.06 K, x1 = 0.407 | 985.25 ± 2
290.06 K, x1 = 0.414 | 985.261 ± 2
290.06 K, x1 = 0.486 | 971.285 ± 2.1
290.06 K, x1 = 0.488 | 967.998 ± 2.1
290.06 K, x1 = 0.546 | 944.207 ± 2.2
290.06 K, x1 = 0.615 | 897.967 ± 2.3
290.15 K, x1 = 0.246 | 1007.82 ± 2.2
290.15 K, x1 = 0.266 | 1003.31 ± 2
290.15 K, x1 = 0.275 | 1003.66 ± 2.1
290.15 K, x1 = 0.3 | 999.813 ± 2.1
290.15 K, x1 = 0.325 | 995.904 ± 2
290.15 K, x1 = 0.363 | 990.879 ± 2
290.15 K, x1 = 0.382 | 987.982 ± 2
290.15 K, x1 = 0.407 | 984.083 ± 2
290.15 K, x1 = 0.414 | 984.081 ± 2
290.15 K, x1 = 0.486 | 970.021 ± 2.1
290.15 K, x1 = 0.488 | 967.145 ± 2.1
290.15 K, x1 = 0.546 | 942.592 ± 2.2
290.15 K, x1 = 0.573 | 923.887 ± 2.3
290.15 K, x1 = 0.587 | 916.211 ± 2.3
290.15 K, x1 = 0.615 | 897.189 ± 2.3
290.15 K, x1 = 0.629 | 888.276 ± 1.9
290.16 K, x1 = 0.338 | 994.25 ± 2
290.25 K, x1 = 0.246 | 1007.68 ± 2.2
290.25 K, x1 = 0.266 | 1002.5 ± 2
290.25 K, x1 = 0.275 | 1002.12 ± 2.1
290.25 K, x1 = 0.3 | 999.25 ± 2
290.25 K, x1 = 0.325 | 995.232 ± 2.1
290.25 K, x1 = 0.363 | 990.096 ± 2
290.25 K, x1 = 0.382 | 987.239 ± 2
290.25 K, x1 = 0.407 | 983.056 ± 2
290.25 K, x1 = 0.414 | 982.887 ± 2
290.25 K, x1 = 0.486 | 968.242 ± 2.1
290.25 K, x1 = 0.488 | 965.719 ± 2.1
290.25 K, x1 = 0.546 | 941.205 ± 2.2
290.25 K, x1 = 0.573 | 924.811 ± 2.4
290.25 K, x1 = 0.587 | 914.293 ± 2.3
290.25 K, x1 = 0.615 | 896.918 ± 2.2
290.26 K, x1 = 0.338 | 993.457 ± 2
290.35 K, x1 = 0.246 | 1007.56 ± 2.2
290.35 K, x1 = 0.3 | 998.453 ± 2.1
290.35 K, x1 = 0.338 | 992.611 ± 2
290.35 K, x1 = 0.363 | 989.111 ± 2
290.35 K, x1 = 0.382 | 986.379 ± 2
290.35 K, x1 = 0.407 | 982.318 ± 2
290.35 K, x1 = 0.414 | 981.695 ± 2
290.35 K, x1 = 0.486 | 966.969 ± 2.1
290.35 K, x1 = 0.546 | 939.634 ± 2.2
290.35 K, x1 = 0.573 | 919.469 ± 2.4
290.35 K, x1 = 0.587 | 912.051 ± 2.2
290.35 K, x1 = 0.615 | 896.796 ± 2.1
290.36 K, x1 = 0.266 | 1001.61 ± 2.1
290.36 K, x1 = 0.275 | 1000.44 ± 2.1
290.36 K, x1 = 0.325 | 994.188 ± 2.1
290.36 K, x1 = 0.488 | 964.297 ± 2.1
290.45 K, x1 = 0.246 | 1007.43 ± 2.2
290.45 K, x1 = 0.275 | 998.669 ± 2.1
290.45 K, x1 = 0.363 | 988.212 ± 2
290.45 K, x1 = 0.382 | 985.548 ± 2
290.45 K, x1 = 0.407 | 981.549 ± 2
290.45 K, x1 = 0.414 | 980.935 ± 2
290.45 K, x1 = 0.486 | 965.653 ± 2.1
290.45 K, x1 = 0.488 | 962.338 ± 2.1
290.45 K, x1 = 0.546 | 938.388 ± 2.2
290.45 K, x1 = 0.573 | 918.938 ± 2.3
290.45 K, x1 = 0.587 | 911.848 ± 2.3
290.45 K, x1 = 0.615 | 891.445 ± 1.9
290.46 K, x1 = 0.266 | 1000.04 ± 2.1
290.46 K, x1 = 0.3 | 997.097 ± 2.1
290.46 K, x1 = 0.325 | 993.308 ± 2
290.46 K, x1 = 0.338 | 991.804 ± 2
290.55 K, x1 = 0.246 | 1007.31 ± 2.2
290.55 K, x1 = 0.363 | 987.195 ± 2
290.55 K, x1 = 0.382 | 984.63 ± 2
290.55 K, x1 = 0.407 | 980.769 ± 2
290.55 K, x1 = 0.414 | 980.125 ± 2
290.55 K, x1 = 0.486 | 963.548 ± 2.1
290.55 K, x1 = 0.546 | 936.105 ± 2.2
290.55 K, x1 = 0.573 | 918.841 ± 2.4
290.55 K, x1 = 0.587 | 907.457 ± 2.4
290.55 K, x1 = 0.615 | 891.334 ± 1.9
290.56 K, x1 = 0.266 | 999.223 ± 2.1
290.56 K, x1 = 0.275 | 997.256 ± 2
290.56 K, x1 = 0.3 | 995.648 ± 2.1
290.56 K, x1 = 0.325 | 992.372 ± 2
290.56 K, x1 = 0.338 | 990.851 ± 2
290.56 K, x1 = 0.488 | 960.605 ± 2.1
290.65 K, x1 = 0.246 | 1007.18 ± 2.2
290.65 K, x1 = 0.275 | 996.456 ± 2
290.65 K, x1 = 0.363 | 986.092 ± 2
290.65 K, x1 = 0.382 | 983.656 ± 2
290.65 K, x1 = 0.407 | 979.953 ± 2
290.65 K, x1 = 0.414 | 979.293 ± 2
290.65 K, x1 = 0.486 | 962.186 ± 2.1
290.65 K, x1 = 0.488 | 958.456 ± 2.1
290.65 K, x1 = 0.546 | 933.71 ± 2.2
290.65 K, x1 = 0.573 | 914.236 ± 2.3
290.65 K, x1 = 0.587 | 907.308 ± 2.2
290.65 K, x1 = 0.615 | 891.207 ± 1.9
290.66 K, x1 = 0.266 | 998.714 ± 2.2
290.66 K, x1 = 0.3 | 994.016 ± 2.1
290.66 K, x1 = 0.325 | 991.399 ± 2
290.66 K, x1 = 0.338 | 989.957 ± 2
290.75 K, x1 = 0.246 | 1007.05 ± 2.2
290.75 K, x1 = 0.266 | 998.54 ± 2.2
290.75 K, x1 = 0.275 | 995.309 ± 2.1
290.75 K, x1 = 0.338 | 988.906 ± 2
290.75 K, x1 = 0.363 | 984.963 ± 2
290.75 K, x1 = 0.382 | 982.614 ± 2
290.75 K, x1 = 0.407 | 979.022 ± 2
290.75 K, x1 = 0.414 | 978.364 ± 2
290.75 K, x1 = 0.486 | 960.473 ± 2.1
290.75 K, x1 = 0.488 | 956.964 ± 2.1
290.75 K, x1 = 0.546 | 931.465 ± 2.2
290.75 K, x1 = 0.573 | 914.122 ± 2.3
290.75 K, x1 = 0.587 | 904.315 ± 2.4
290.75 K, x1 = 0.615 | 891.079 ± 1.9
290.76 K, x1 = 0.3 | 992.118 ± 2.1
290.76 K, x1 = 0.325 | 990.346 ± 2
290.85 K, x1 = 0.246 | 1006.93 ± 2.2
290.85 K, x1 = 0.275 | 994.946 ± 2.2
290.85 K, x1 = 0.363 | 983.532 ± 2
290.85 K, x1 = 0.382 | 981.337 ± 2
290.85 K, x1 = 0.407 | 977.974 ± 2
290.85 K, x1 = 0.486 | 958.566 ± 2.1
290.85 K, x1 = 0.488 | 954.397 ± 2.1
290.85 K, x1 = 0.546 | 930.124 ± 2.2
290.85 K, x1 = 0.573 | 911.261 ± 2.4
290.85 K, x1 = 0.587 | 900.983 ± 2.5
290.86 K, x1 = 0.266 | 998.415 ± 2.2
290.86 K, x1 = 0.3 | 990.332 ± 2
290.86 K, x1 = 0.325 | 989.272 ± 2
290.86 K, x1 = 0.338 | 987.682 ± 2
